Data: patent publication US12391692B2, “Spiro ring-containing quinazoline compound” (WIGEN BIOMEDICINE TECHNOLOGY (SHANGHAI) CO., LTD., priority 2020, dated 2025)

What was measured:
pERK level in H358 cells = test: pERK and ERK protein content assay in H358 cells (ELISA); type: cell-based; details: Homo sapiens, NCI-H358, pERK/ERK ratio vs DMSO group, compound 1 μM, 24 h, read-out: Inhibition rate (%)
Procedure, shortened: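 Percent inhibition of pERK relative to DMSO, from the ELISA pERK/ERK ratio in lysed H358 cells. Compound applied at 1 μM for 24 h after one day of growth.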

H358 cells = test: Antiproliferative activity against H358 cells (Cell Titer Glow, ultra-low attachment plate); type: cell-based; details: Homo sapiens, NCI-H358, 72 h, three days after addition of compound
Experimental: 2500 H358 cells were seeded in a 96-well ultra-low attachment plate (corning, 7007). After one day of growth, a serially diluted compound (a maximum concentration of 5 μM, 5-fold dilution, a total of five doses) was added. Three days after the addition of the compound, Cell Titer Glow (Promega, G9681) was added to evaluate pellet growth, and the IC50 value was calculated.

[1] = system: human pancreatic cancer Mia PaCa-2 xenograft tumors; test: Antitumor activity in mice, Mia PaCa-2 xenograft; type: in vivo; details: Mia PaCa-2 xenograft in nude mice; for Anti-tumor effect (regression): 10 mg/kg, qd*21, intragastric; for in vivo activity compared with control drug B: 10 mg/kg/day, 21 days
Experimental: Human pancreatic cancer Mia PaCa-2 cells were cultured conventionally in 1640 medium containing 10% fetal bovine serum in a 37° C./5% CO2 incubator. After being subcultured, the cells were collected when they reached the desired amount. 1×10^7 Mia PaCa-2 cells were injected into the left dorsal side of each nude mouse, and the animals were randomly grouped for administration after tumors grew to 150 mm^3. The groups were as follows: 1) solvent control group, 8 mice; 2) compound 6 group, compound 14 group, compound 28 group, compound 44 group, compound 60 group, compound 103 group and control drug B (Example 35 in WO2018/143315), 8 mice in each group. The mice in the solvent control group was intragastrically administered with 0.5% CMC-Na once a day; and the mice in the compound groups were intragastrically administered with 0.5% CMC-Na suspension once a day. On Tuesday and Thursday each week, tumor volumes and body weight of the mice were measured, and the nude mice were sacrificed on day 21 during the treatment period.

Structure (SMILES)	inhibition at 1 µM (pERK level in H358 cells)	IC50 (H358 cells)	Anti-tumor effect (regression) [1]	in vivo activity compared with control drug B [1]
C=CC(=O)N1CC2(CCN(c3nc(N4CC(N5CC6(CC6)C5)C4)nc4c(OCC(F)(F)F)c(-c5c(C)ccc6[nH]ncc56)c(C5CC5)cc34)CC2)C1 [Compound 28]	> 90%	< 0.3 µM	42% regression	stronger in vivo activity than the control drug B
C=CC(=O)N1CC2(CCN(c3nc(N4CC(C)(N5CCC5)C4)nc4c(OCC(F)(F)F)c(-c5c(C)ccc6[nH]ncc56)c(C5CC5)cc34)CC2)C1 [Compound 60]	> 90%	< 0.3 µM	30% regression	stronger in vivo activity than the control drug B
C=CC(=O)N1CC2(CCN(c3nc(N4CC(OC5CN(C)C5)C4)nc4c(OCC(F)(F)F)c(-c5c(C)ccc6[nH]ncc56)c(C5CC5)cc34)CC2)C1 [Compound 14]	> 90%	< 0.3 µM	37% regression	stronger in vivo activity than the control drug B
C=CC(=O)N1CC2(CCN(c3nc(N4CC(CN5CCC5)C4)nc4c(OCC(F)(F)F)c(-c5c(C)ccc6[nH]ncc56)c(C5CC5)cc34)CC2)C1 [Compound 6]	> 90%	< 0.3 µM	35% regression	stronger in vivo activity than the control drug B
C=CC(=O)N1CC2(CCN(c3nc(N4CC(N5CC(O)C5)C4)nc4c(OCC(F)(F)F)c(-c5c(C)ccc6[nH]ncc56)c(C5CC5)cc34)CC2)C1 [Compound 44]	> 90%	< 0.3 µM	23% regression	
C=CC(=O)N1CC2(CCN(c3nc(N4CC(N5CC6(CC6)C5)C4)nc4c(OCC(F)(F)F)c(-c5c(F)ccc6[nH]ncc56)c(C5CC5)cc34)CC2)C1 [Compound 103]	> 90%	< 0.3 µM	39% regression	stronger in vivo activity than the control drug B
C=CC(=O)N1CC2(CCN(c3nc(O[C@H]4C[C@H](N5CCC5)C4)nc4c(OCC(F)(F)F)c(-c5c(C)ccc6[nH]ncc56)c(C5CC5)cc34)CC2)C1 [Compound 88]	50 to 90%	0.3 to 1 µM		
C=CC(=O)N1CC2(CCN(c3nc(O[C@H]4C[C@@H](N5CCCC5)C4)nc4c(OCC(F)(F)F)c(-c5c(C)ccc6[nH]ncc56)c(C5CC5)cc34)CC2)C1 [Compound 89]	> 90%	< 0.3 µM		
C=CC(=O)N1CC2(CCN(c3nc(N4CC(N5CC6(CN(C)C6)C5)C4)nc4c(OCC(F)(F)F)c(-c5c(C)ccc6[nH]ncc56)c(C5CC5)cc34)CC2)C1 [Compound 32]	> 90%	< 0.3 µM		
C=CC(=O)N1CC2(CCN(c3nc(N4CC(C)(CN5CCCC5)C4)nc4c(OCC(F)(F)F)c(-c5c(C)ccc6[nH]ncc56)c(C5CC5)cc34)CC2)C1 [Compound 64]	> 90%	< 0.3 µM		
